From paper PMC7544095, “Human ABCB1 with an ABCB11-like degenerate nucleotide binding site maintains transport activity by avoiding nucleotide occlusion” (PLoS Genetics, 2020)
Read-outs that look alike come from different tables or passages of the source.

Experiments:
wild-type ABCB1 [1] = biological target: T1, wild-type ABCB1 (Homo sapiens, UniProt P08183); assay: MgATP dependent UIC2 binding in permeabilized NIH 3T3 cells (apparent nucleotide affinity); type: cell-based
T1 construct: expressed in transfected cells
T1 sequence (P08183 whole entry): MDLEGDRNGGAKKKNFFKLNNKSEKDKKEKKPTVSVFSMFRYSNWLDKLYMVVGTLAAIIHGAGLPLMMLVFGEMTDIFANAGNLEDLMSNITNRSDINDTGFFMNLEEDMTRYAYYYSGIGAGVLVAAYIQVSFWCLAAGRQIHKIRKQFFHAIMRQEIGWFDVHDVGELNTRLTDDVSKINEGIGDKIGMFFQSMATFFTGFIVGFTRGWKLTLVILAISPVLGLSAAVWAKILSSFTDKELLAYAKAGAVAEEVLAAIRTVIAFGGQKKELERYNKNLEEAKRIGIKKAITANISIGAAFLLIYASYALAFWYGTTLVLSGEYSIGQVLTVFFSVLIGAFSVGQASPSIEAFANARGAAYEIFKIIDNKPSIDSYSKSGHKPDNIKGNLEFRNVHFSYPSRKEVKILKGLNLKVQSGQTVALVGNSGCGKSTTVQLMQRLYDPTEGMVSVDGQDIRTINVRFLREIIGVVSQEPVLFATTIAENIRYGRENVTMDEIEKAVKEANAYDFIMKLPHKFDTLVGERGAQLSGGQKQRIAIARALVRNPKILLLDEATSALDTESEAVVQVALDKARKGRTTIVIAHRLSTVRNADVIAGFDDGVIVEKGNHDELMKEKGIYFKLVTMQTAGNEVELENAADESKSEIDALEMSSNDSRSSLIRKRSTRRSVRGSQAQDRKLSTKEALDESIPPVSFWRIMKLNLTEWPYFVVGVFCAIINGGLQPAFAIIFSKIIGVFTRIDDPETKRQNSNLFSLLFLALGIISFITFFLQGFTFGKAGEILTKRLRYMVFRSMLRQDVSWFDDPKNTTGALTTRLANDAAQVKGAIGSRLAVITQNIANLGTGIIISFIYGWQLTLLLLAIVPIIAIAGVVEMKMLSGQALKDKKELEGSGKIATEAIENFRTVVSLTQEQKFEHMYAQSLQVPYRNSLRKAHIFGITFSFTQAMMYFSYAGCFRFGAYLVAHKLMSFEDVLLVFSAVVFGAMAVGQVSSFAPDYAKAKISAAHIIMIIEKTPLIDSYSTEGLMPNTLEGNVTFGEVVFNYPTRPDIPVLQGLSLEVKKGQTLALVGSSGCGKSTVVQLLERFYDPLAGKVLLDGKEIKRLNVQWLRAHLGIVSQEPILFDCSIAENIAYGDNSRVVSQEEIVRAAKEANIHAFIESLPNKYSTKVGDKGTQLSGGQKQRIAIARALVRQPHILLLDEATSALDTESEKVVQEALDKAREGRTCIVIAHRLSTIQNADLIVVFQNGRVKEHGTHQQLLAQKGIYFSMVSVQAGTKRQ
Experimental: (§1) NIH 3T3 cells (1 × 10^7 cells/ml) were treated with 300 U/ml streptolysin O (SLO, Sigma-Aldrich, Budapest) in the presence of 10 mM DL-Dithiothreitol (DTT), protease inhibitor cocktail (Sigma-Aldrich, Budapest, Hungary) and 100 μg/ml phenylmethanesulfonyl fluoride (PMSF) in phosphate-buffered saline (PBS) containing 1% fetal bovine serum (FBS-PBS) at 37°C for 30 min, allowing permeabilization of approximately 60–80% of the cells (judged by propidium iodide (PI) staining). The reaction was stopped with 10 ml ice-cold FBS-PBS and the cells were centrifuged for 5 min at 525 × g at 4°C. Unbound toxin was removed by washing the cells 3 times with FBS-PBS and the cell pellet was re-suspended in FBS-PBS.
(§2) Apparent affinity of nucleotide binding (KA) was determined as it is described in Barsony et al.. Briefly, MgATP was added in a broad concentration range to permeabilized cells (1 × 10^6 cells/ml) in the presence or absence of 0.5 mM vanadate (Vi) for 30 min at 37°C. Then the samples (without washing) were further incubated with 10 μg/ml UIC2-A647 mAb for another 30 min at 37°C. Following antibody labeling, samples were washed 3 times with ice-cold FBS-PBS and re-suspended in ice-cold FBS-PBS containing 3 μg/ml PI. The UIC2-A647 fluorescence intensity of the PI positive cells was measured by flow cytometry and plotted as a function of the nucleotide concentration. To determine the apparent affinity of ABCB1 to the nucleotides (KA) data points were fitted with the four-parameter Hill function, where Fmin and Fmax values are the minimum and maximum fluorescence intensities.

[2] = biological target: T2, ABCB1 E556M (catalytic glutamate mutant) (Homo sapiens, UniProt P08183, E556M); assay: as above; type: cell-based
T2 construct: expressed in transfected cells
T2 sequence (P08183 whole entry E556M): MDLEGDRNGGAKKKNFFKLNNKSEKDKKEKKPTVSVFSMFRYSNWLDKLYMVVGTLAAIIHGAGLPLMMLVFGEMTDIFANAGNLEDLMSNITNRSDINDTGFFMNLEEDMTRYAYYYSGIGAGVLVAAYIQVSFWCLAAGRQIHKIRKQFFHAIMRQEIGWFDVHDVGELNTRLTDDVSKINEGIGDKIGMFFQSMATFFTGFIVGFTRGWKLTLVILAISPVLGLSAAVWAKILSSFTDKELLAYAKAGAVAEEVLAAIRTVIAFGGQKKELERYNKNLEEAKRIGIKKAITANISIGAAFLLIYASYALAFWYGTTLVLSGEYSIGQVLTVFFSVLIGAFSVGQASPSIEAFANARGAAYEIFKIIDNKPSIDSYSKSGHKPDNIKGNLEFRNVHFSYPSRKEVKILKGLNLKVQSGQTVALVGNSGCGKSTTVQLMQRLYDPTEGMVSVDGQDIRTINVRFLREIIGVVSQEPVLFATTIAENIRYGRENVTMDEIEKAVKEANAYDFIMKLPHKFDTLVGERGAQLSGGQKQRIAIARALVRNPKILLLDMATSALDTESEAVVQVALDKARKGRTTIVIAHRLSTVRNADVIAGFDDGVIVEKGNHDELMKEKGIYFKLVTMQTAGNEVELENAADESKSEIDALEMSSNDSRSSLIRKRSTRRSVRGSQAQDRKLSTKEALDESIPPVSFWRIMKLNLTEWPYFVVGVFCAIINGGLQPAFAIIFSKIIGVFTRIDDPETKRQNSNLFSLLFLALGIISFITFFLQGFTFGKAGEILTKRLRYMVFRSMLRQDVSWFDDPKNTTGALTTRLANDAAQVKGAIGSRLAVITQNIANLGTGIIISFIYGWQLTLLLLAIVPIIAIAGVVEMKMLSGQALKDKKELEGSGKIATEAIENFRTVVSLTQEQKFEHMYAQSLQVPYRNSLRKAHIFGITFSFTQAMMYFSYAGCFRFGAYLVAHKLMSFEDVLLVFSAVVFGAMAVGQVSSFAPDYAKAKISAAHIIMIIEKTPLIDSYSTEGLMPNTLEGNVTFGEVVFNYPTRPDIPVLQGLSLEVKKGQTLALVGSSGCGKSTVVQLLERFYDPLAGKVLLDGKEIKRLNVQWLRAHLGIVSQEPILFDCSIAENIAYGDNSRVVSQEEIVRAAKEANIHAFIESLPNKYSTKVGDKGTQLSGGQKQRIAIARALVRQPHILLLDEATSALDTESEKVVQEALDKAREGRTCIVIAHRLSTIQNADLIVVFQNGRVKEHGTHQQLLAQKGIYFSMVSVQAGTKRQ
Experimental: as §1, §2

[3] = biological target: T3, ABCB1 quadruple mutant (S474E, E556M, G1178R, Q1180E) (Homo sapiens, UniProt P08183, E556M/G1178R/Q1180E/S474E); assay: as above; type: cell-based
T3 construct: expressed in transfected cells
T3 sequence (P08183 whole entry S474E/E556M/G1178R/Q1180E): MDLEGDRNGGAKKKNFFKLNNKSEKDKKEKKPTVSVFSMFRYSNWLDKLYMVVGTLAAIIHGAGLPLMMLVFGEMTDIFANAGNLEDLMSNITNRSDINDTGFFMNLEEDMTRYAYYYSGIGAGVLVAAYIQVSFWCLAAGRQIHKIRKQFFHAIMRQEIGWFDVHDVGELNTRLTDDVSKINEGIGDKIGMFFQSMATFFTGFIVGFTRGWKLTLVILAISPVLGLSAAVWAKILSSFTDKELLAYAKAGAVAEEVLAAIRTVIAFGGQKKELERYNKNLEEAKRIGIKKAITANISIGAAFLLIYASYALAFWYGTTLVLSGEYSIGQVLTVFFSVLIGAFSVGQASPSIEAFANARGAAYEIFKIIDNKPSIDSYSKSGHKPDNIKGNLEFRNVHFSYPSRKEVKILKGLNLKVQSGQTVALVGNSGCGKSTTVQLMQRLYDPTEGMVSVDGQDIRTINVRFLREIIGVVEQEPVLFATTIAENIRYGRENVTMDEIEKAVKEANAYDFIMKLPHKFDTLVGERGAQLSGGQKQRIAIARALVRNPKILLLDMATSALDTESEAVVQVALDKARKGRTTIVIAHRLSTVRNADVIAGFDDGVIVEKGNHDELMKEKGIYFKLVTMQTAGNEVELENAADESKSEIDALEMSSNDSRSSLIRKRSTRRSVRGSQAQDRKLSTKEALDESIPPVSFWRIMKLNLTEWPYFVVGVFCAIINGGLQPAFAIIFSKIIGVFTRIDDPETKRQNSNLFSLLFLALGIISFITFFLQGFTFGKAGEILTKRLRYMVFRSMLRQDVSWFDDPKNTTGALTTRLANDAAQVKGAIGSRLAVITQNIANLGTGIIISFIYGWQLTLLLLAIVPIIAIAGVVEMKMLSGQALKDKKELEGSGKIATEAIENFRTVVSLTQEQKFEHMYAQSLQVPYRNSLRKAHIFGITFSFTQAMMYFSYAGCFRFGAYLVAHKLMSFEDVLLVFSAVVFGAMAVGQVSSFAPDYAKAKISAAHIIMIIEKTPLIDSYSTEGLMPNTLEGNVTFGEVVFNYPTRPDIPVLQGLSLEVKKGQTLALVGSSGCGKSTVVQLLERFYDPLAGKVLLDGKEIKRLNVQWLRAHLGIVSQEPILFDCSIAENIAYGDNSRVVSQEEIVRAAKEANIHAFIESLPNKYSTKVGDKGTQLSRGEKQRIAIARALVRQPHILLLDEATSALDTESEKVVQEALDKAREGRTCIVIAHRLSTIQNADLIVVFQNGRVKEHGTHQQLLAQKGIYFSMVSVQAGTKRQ
Experimental: as §1, §2

ABCB1 = system: ABCB1; parameters: method as in PMID 11121420; details: reported values; read-out: KM for ATP hydrolysis; cited from earlier work
[4] = biological target: T2, ABCB1 E556M (catalytic glutamate mutant); assay: Hoechst 33342 and calcein-AM accumulation assay in NIH 3T3 cells (transport activity factor); type: cell-based
Experimental: (§3) For measurement of the transport activity of the mutant ABCB1 variants a cell based Hoechst 33342 and calcein-AM accumulation assay was used. Cells (5 × 10^5 ml^-1) in gl-HEPES (20 mM HEPES, 123 mM NaCl, 5 mM KCl, 1.5 mM MgCl2, 1 mM CaCl2, 7 mM glucose) for Hoechst 33342 assay or in gl-PBS for calcein-AM assay were pre-incubated in the presence or absence of specific ABCB1 inhibitor (tariquidar (1 μM)) for 10 min at 37°C and then were loaded with different concentrations of Hoechst 33342 (5.0, 1.0, 0.5, 0.1 and 0.025 μM) and calcein-AM (0.5, 0.25, 0.1, 0.05 and 0.025 μM) for 30 min. The samples were washed with ice-cold HEPES or PBS buffer containing 0.5% FBS at 300 × g for 5 min and were kept on ice until flow cytometric measurement. Dead cells were excluded from the analysis on the basis of PI staining. The transport activity of the ABCB1 variants was described by the Transport Activity Factor (TAF) calculated according to the following formula: TAF = (MFinh−MFI0)/MFIinh, wherein MFIinh and MFI0 are the mean fluorescence intensity values measured in the presence and absence of ABCB1 inhibitor, respectively.
(§4) Intracellular Hoechst 33342 and calcein accumulation was measured using a Becton Dickinson FACSAria III Cell Sorter (Becton Dickinson, Mountain View, CA, USA). Hoechst 33342 was excited with a 365 nm UV laser and the emitted blue light was detected using a 445/40 band pass filter. Calcein was excited with a 488 nm blue laser and fluorescence was detected using a 502 long pass dichroic mirror and a 530/20 band pass filter. PI was excited by the 562 nm line of a solid-state laser and the emitted light was detected applying a 590 nm dichroic mirror and a 595/50 nm band-pass filter.

[5] = biological target: T3, ABCB1 quadruple mutant (S474E, E556M, G1178R, Q1180E); assay: as above; type: cell-based
Experimental: as §3, §4

wild-type ABCB1 [6] = biological target: T1, wild-type ABCB1; assay: as above; type: cell-based; details: wild-type ABCB1 expressing cells, 30 min, 37°C
Experimental: as §3, §4

SMILES: Nc1ncnc2c1ncn2[C@@H]1O[C@H](COP(=O)(O)OP(=O)([O-])OP(=O)([O-])O)[C@@H](O)[C@H]1O.[Mg+2] [MgATP]
- apparent affinity (KA) lower than reported KM (wild-type ABCB1 [1]; wild-type ABCB1, KA vs reported KM): 3–4 fold
- apparent affinity of MgATP (KA) (wild-type ABCB1 [1]; wild-type ABCB1, absence of vanadate, UIC2 binding readout, 37°C): 1.56 ± 0.46 mM
- apparent affinity of ATP (KA) ([2]; absence of Vi): 0.077 ± 0.02 mM
- apparent affinity of ATP (KA) with Vi ([2]; treatment with 0.5 mM Vi): 0.027 ± 0.001 mM
- apparent affinity for MgATP/Vi (KA) ([3]; 0.5 mM Vi): 0.038 ± 0.001 mM
- apparent affinity for MgATP (KA) ([3]; absence of Vi): 1.12 ± 0.6 mM
- Km (ABCB1): 300 to 500 µM

SMILES: O=C(O)CN(CC(=O)O)Cc1cc2c(cc1O)Oc1cc(O)c(CN(CC(=O)O)CC(=O)O)cc1C21OC(=O)c2ccccc21 [calcein]
- transport activity [4]: abolished transport activity
- difference in transport activity factor between wild type and quadruple mutant [5]: two-fold difference
- intracellular accumulation / efflux by ABCB1 [5]: able to limit

SMILES: CCOc1ccc(-c2nc3ccc(-c4nc5ccc(N6CCN(C)CC6)cc5[nH]4)cc3[nH]2)cc1 [Hoechst 33342]
- intracellular accumulation / efflux by ABCB1 (wild-type ABCB1 [6]): effectively prevented intracellular accumulation
- transport activity ([4]; E556M expressing cells): abolished transport activity
- intracellular accumulation / efflux by ABCB1 ([5]; quadruple mutant expressing cells): able to limit
- difference in transport activity factor between wild type and quadruple mutant ([5]; wild type vs quadruple mutant): two-fold difference
